Patent publication US20250296971A1, “GASTRIC INHIBITORY PEPTIDE RECEPTOR LIGANDS” (priority 2021, published 2025)
Like-named read-outs stand apart in the source and are kept apart here. *1 amine or outer side, *2 acyl side, *3 side chain or, on linkers, in order; H or OH if unused. Where a SMILES comes first, the peptide text is derived from it. Bridges are numbered along the chain shown (N, C = ends). [ ]: non-standard residue; d: D form. The star is where a group is joined. DOTA(Lu) = O=C1CN2CCN3CCN(CC(=O)*)CCN(CC2)CC(=O)[O][Lu]([O]1)[O]C(=O)C3; NH(1-deoxy-D-glucityl) = OC[C@@H](O)[C@@H](O)[C@H](O)[C@@H](O)CN*; DOTA = O=C(O)CN1CCN(CC(=O)O)CCN(CC(=O)*)CCN(CC(=O)O)CC1; Trp(5-Cl) = N[C@@H](Cc1c[nH]c2ccc(Cl)cc12)C(=O)O; Pyridine(2,6-diCH2) = c1cc(C[*:1])nc(C[*:2])c1; Phe(2-Cl) = N[C@@H](Cc1ccccc1Cl)C(=O)O; Pro(4R-NH2) = N[C@H]1CN[C@H](C(=O)O)C1; mXylylene = c1cc(C[*:1])cc(C[*:2])c1; Glutaryl = O=C(CCCC(=O)[*:2])[*:1]; Hyp = O=C(O)[C@@H]1C[C@@H](O)CN1; X1 = O=C(CN1CCC(N[*:1])CC1)[*:2]; Suc = O=C(CCC(=O)[*:2])[*:1]; Api = NC1(C(=O)O)CCNCC1; Dab = NCC[C@H](N)C(=O)O; Thp = NC1(C(=O)O)CCOCC1; Sar = CNCC(=O)O

Biological target: T1, GIPR (CHO-K1-hGIPR cells) (Homo sapiens, UniProt P48546)
T1 construct: host or cells: CHO-K1
T1 sequence (P48546 22-466): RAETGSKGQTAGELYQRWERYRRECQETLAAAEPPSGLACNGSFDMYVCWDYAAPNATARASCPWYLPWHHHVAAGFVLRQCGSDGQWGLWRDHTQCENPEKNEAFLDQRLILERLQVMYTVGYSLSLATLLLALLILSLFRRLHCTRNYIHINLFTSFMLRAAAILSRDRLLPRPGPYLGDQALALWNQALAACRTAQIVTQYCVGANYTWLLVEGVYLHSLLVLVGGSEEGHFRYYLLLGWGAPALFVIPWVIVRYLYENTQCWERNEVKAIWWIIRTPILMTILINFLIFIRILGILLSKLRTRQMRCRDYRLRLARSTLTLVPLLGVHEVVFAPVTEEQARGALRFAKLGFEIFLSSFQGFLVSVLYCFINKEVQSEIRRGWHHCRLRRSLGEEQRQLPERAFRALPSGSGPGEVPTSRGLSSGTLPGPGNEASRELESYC
Experiment: FACS binding assay
Conditions: for IC50: read-out: pIC50 Category (converted)
How it was run: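 Median fluorescence in the APC channel, measured on washed CHO-K1 cells overexpressing human GIPR, was fitted by four-parameter logistic regression against peptide concentration to yield EC50 or IC50 values. Secondary labelling used APC-streptavidin (1 μg/mL, 30 min, ice).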

[1] = competition with 20 nM GIP-057, 4° C., 1 hour
[2] = competition with 20 nM GIP-057, 4° C. for 1 hour

Structure (SMILES)	IC50 [1]	IC50 [2]	other results
CC[C@H](C)[C@@H]1NC(=O)[C@H](CC(C)C)NC(=O)C2(CCOCC2)NC(=O)[C@@H](NC(=O)[C@@H](CC(C)C)NC(=O)[C@H](CCC(=O)O)NC(=O)[C@@H]2C[C@@H](O)CN2C(=O)[C@H](Cc2c[nH]c3ccc(Cl)cc23)NC(=O)[C@H](Cc2c[nH]c3ccccc23)NC(=O)[C@H](CC(=O)O)NC(=O)CCCC(=O)NC[C@H](O)[C@@H](O)[C@H](O)[C@H](O)CO)CSCc2cccc(n2)CSC[C@@H](C(N)=O)NC1=O [GIP-178, AGLU-Glutar-Asp-Trp-5Clw-Hyp-Glu-leu-[Cys(2Lut)-Thp-Leu-Ile-Cys]-NH2] ({NH(1-deoxy-D-glucityl)-Glutaryl}-DW[Trp(5-Cl)][Hyp]E[dL]C[Thp]LIC-NH2; linker 7-11 via Pyridine(2,6-diCH2))	< 10 nM	–	–
CC[C@H](C)[C@@H]1NC(=O)[C@H](CC(C)C)NC(=O)[C@H](CCNC(=O)CN2CCN(CC(=O)O)CCN(CC(=O)O)CCN(CC(=O)O)CC2)NC(=O)[C@@H](NC(=O)[C@@H](CC(C)C)NC(=O)[C@H](CCC(=O)O)NC(=O)[C@@H]2C[C@@H](N)CN2C(=O)[C@H](Cc2c[nH]c3ccc(Cl)cc23)NC(=O)[C@H](Cc2c[nH]c3ccccc23)NC(=O)[C@H](CC(=O)O)NC(=O)CCCC(=O)NC[C@H](O)[C@@H](O)[C@H](O)[C@H](O)CO)CSCc2cccc(n2)CSC[C@@H](C(=O)NC2CCN(CC(=O)N[C@H](CCC(=O)NC[C@H](O)[C@@H](O)[C@H](O)[C@H](O)CO)C(N)=O)CC2)NC1=O [GIP-026, AGLU-Glutar-Asp-Trp-5Clw-Tap-Glu-leu-[Cys(2Lut)-Dab(DOTA)-Leu-Ile-Cys]-APAc-glu(AGLU)-NH2] ({NH(1-deoxy-D-glucityl)-Glutaryl}-DW[Trp(5-Cl)][Pro(4R-NH2)]E[dL]C[Dab](DOTA)LIC[X1][dE](NH(1-deoxy-D-glucityl))-NH2; linker 7-11 via Pyridine(2,6-diCH2))	< 10 nM	–	–
CC[C@H](C)[C@@H]1NC(=O)[C@H](CC(C)C)NC(=O)C2(CCN(C(=O)CN3CCN4CCN5CCN(CC3)CC(=O)[O][Lu]([O]C(=O)C5)[O]C(=O)C4)CC2)NC(=O)[C@@H](NC(=O)[C@@H](CC(C)C)NC(=O)[C@H](CCC(=O)O)NC(=O)[C@@H]2C[C@@H](N)CN2C(=O)[C@H](Cc2c[nH]c3ccc(Cl)cc23)NC(=O)[C@H](Cc2c[nH]c3ccccc23)NC(=O)[C@H](CC(=O)O)NC(=O)CCCC(=O)NC[C@H](O)[C@@H](O)[C@H](O)[C@H](O)CO)CSCc2cccc(n2)CSC[C@@H](C(=O)NC2CCN(CC(=O)N[C@H](CCC(=O)NC[C@H](O)[C@@H](O)[C@H](O)[C@H](O)CO)C(N)=O)CC2)NC1=O [GIP-067, AGLU-Glutar-Asp-Trp-5Clw-Tap-Glu-leu-[Cys(2Lut)-Apc(LuDOTA)-Leu-Ile-Cys]-APAc-glu(AGLU)-NH2] ({NH(1-deoxy-D-glucityl)-Glutaryl}-DW[Trp(5-Cl)][Pro(4R-NH2)]E[dL]C[Api](DOTA(Lu))LIC[X1][dE](NH(1-deoxy-D-glucityl))-NH2; linker 7-11 via Pyridine(2,6-diCH2))	–	–	pIC50 Category [1]: A (pIC50 values>8.0)

The next lines start with results.

IC50 [1]	IC50 [2]	Structure (SMILES)	other results
–	10 to 79.4 nM	CC[C@H](C)[C@@H]1NC(=O)[C@H](CC(C)C)NC(=O)C2(CCOCC2)NC(=O)[C@@H](NC(=O)[C@@H](CC(C)C)NC(=O)[C@H](CCC(=O)O)NC(=O)[C@@H]2C[C@@H](O)CN2C(=O)[C@H](Cc2c[nH]c3ccc(Cl)cc23)NC(=O)[C@H](Cc2ccccc2Cl)NC(=O)[C@H](CC(=O)O)NC(C)=O)CSCc2cccc(n2)CSC[C@@H](C(N)=O)NC1=O [GIP-262, Ac-Asp-Ocf-5Clw-Hyp-Glu-leu-[Cys(2Lut)-Thp-Leu-Ile-Cys]-NH2] (Ac-D[Phe(2-Cl)][Trp(5-Cl)][Hyp]E[dL]C[Thp]LIC-NH2; linker 7-11 via Pyridine(2,6-diCH2))	–
< 10 nM	–	CC[C@H](C)[C@@H]1NC(=O)[C@H](CC(C)C)NC(=O)C2(CCOCC2)NC(=O)[C@@H](NC(=O)[C@@H](CC(C)C)NC(=O)[C@H](CCC(=O)O)NC(=O)CN(C)C(=O)[C@H](Cc2c[nH]c3ccc(Cl)cc23)NC(=O)[C@H](Cc2c[nH]c3ccccc23)NC(=O)[C@H](CC(=O)O)NC(C)=O)CSCc2cccc(n2)CSC[C@@H](C(N)=O)NC1=O [GIP-183, Ac-Asp-Trp-5Clw-Nmg-Glu-leu-[Cys(2Lut)-Thp-Leu-Ile-Cys]-NH2] (Ac-DW[Trp(5-Cl)][Sar]E[dL]C[Thp]LIC-NH2; linker 7-11 via Pyridine(2,6-diCH2))	–
–	100 to 794 nM	CC[C@H](C)[C@@H]1NC(=O)[C@H](CC(C)C)NC(=O)[C@@H](C)NC(=O)[C@@H](NC(=O)[C@@H](CC(C)C)NC(=O)[C@H](CCC(=O)O)NC(=O)[C@@H]2CCCN2C(=O)[C@H](Cc2c[nH]c3ccccc23)NC(=O)[C@H](Cc2c[nH]c3ccccc23)NC(=O)CCC(=O)O)CSCc2cccc(c2)CSC[C@@H](C(N)=O)NC1=O [GIP-318, HO-Succinyl-Trp-Trp-Pro-Glu-leu-[Cys(3MeBn)-ala-Leu-Ile-Cys]-NH2] (Suc-WWPE[dL]C[dA]LIC-NH2; linker 6-10 via mXylylene)	–
